Measurements from US11311522B1 (Cavion, Inc., priority 2018, dated 2022).

Test: PN002/Part II: safety and tolerability
Assay type: in vivo
Text: Clinical safety was monitored throughout the study by adverse events, clinical laboratory tests, vital signs, ECGs, and ECG telemetry.
The subject was not on telemetry at the time.

## CC(C)c1ccc(CC(=O)N[C@H](C)c2ccc(OCC(F)(F)F)cn2)cc1 [CX-8998]
12 mg/d
  Abnormal sensation of limbs: 0 n %
  Anger: 0 n %
  Application site erythema: 1 (16.7) n %
  Application site pruritus: 1 (16.7) n %
  At least 1 adverse event: 6 (100) n %
  Backache: 0 n %
  Clamminess: 0 n %
  Daydreaming: 0 n %
  Disorientation: 0 n %
  Dizziness: 1 (16.7) n %
  Drowsiness: 0 n %
  Dyspepsia: 0 n %
  Euphoric mood: 0 n %
  Eye Disorders: 1 (16.7) n %
  Feeling drunk: 0 n %
  Feeling of relaxation: 2 (33.3) n %
  Floating feeling: 0 n %
  Fuzzy head: 0 n %
  Gastrointestinal Disorders: 1 (16.7) n %
  Hallucination: 0 n %
  Headache: 1 (16.7) n %
  Heaviness of head: 1 (16.7) n %
  Hyperactivity: 1 (16.7) n %
  Hypoaesthesia mouth: 0 n %
  Increased state of alertness: 0 n %
  Intermittent headache: 1 (16.7) n %
  Lethargy: 0 n %
  Lightheadedness: 0 n %
  Mood altered: 1 (16.7) n %
  Mood change: 0 n %
  Musculoskeletal and Connective Tissue Disorders: 1 (16.7) n %
  Nausea: 0 n %
  Nervous System Disorders: 2 (33.3) n %
  Paraesthesia generalized: 0 n %
  Paranoia: 0 n %
  Psychiatric Disorders: 2 (33.3) n %
  Respiratory, Thoracic and Mediastinal Disorders: 0 n %
  Sedation: 0 n %
  Sensation of heaviness: 0 n %
  Sensation of pressure: 0 n %
  Skin and Subcutaneous Tissue Disorders: 1 (16.7) n %
  Sleep difficult: 1 (16.7) n %
  Sleep disturbance: 0 n %
  Somnolence: 0 n %
  Sore throat: 0 n %
  Spaced out: 0 n %
  Syncope: 0 n %
  Taste change: 0 n %
  Temporal disorientation: 0 n %
  Tingling: 0 n %
  Tiredness: 5 (83.3) n %
  Visual disturbance: 0 n %
  Vivid dreams: 0 n %
  Vomiting: 0 n %
18 mg once daily
  Subjects discontinuing treatment because of adverse events: 4 of the 6 subjects
18 mg/d
  Abnormal physical sensation: 2 (33.3) n %
  Abnormal sensation of limbs: 2 (33.3) n %
  Anger: 2 (33.3) n %
  Application site erythema: 0 n %
  Application site pruritus: 0 n %
  At least 1 adverse event: 6 (100) n %
  Backache: 2 (33.3) n %
  Clamminess: 1 (16.7) n %
  Daydreaming: 2 (33.3) n %
  Disorientation: 1 (16.7) n %
  Dizziness: 2 (33.3) n %
  Drowsiness: 2 (33.3) n %
  Dyspepsia: 0 n %
  Euphoric mood: 1 (16.7) n %
  Eye Disorders: 2 (33.3) n %
  Feeling drunk: 2 (33.3) n %
  Feeling of relaxation: 0 n %
  Floating feeling: 0 n %
  Fuzzy head: 1 (16.7) n %
  Gastrointestinal Disorders: 4 (66.7) n %
  Hallucination: 2 (33.3) n %
  Headache: 4 (66.7) n %
  Heaviness of head: 1 (16.7) n %
  Hyperactivity: 0 n %
  Hypoaesthesia mouth: 2 (33.3) n %
  Increased state of alertness: 0 n %
  Intermittent headache: 0 n %
  Lethargy: 1 (16.7) n %
  Lightheadedness: 1 (16.7) n %
  Mood altered: 0 n %
  Mood change: 0 n %
  Musculoskeletal and Connective Tissue Disorders: 4 (66.7) n %
  Nausea: 2 (33.3) n %
  Nervous System Disorders: 6 (100) n %
  Paraesthesia generalized: 1 (16.7) n %
  Paranoia: 2 (33.3) n %
  Psychiatric Disorders: 6 (100) n %
  Respiratory, Thoracic and Mediastinal Disorders: 1 (16.7) n %
  Sedation: 0 n %
  Sensation of heaviness: 1 (16.7) n %
  Sensation of pressure: 0 n %
  Skin and Subcutaneous Tissue Disorders: 3 (50.0) n %
  Sleep difficult: 1 (16.7) n %
  Sleep disturbance: 1 (16.7) n %
  Somnolence: 0 n %
  Sore throat: 1 (16.7) n %
  Spaced out: 2 (33.3) n %
  Syncope: 1 (16.7) n %
  Taste change: 1 (16.7) n %
  Temporal disorientation: 0 n %
  Tingling: 0 n %
  Tiredness: 2 (33.3) n %
  Visual disturbance: 2 (33.3) n %
  Vivid dreams: 0 n %
  Vomiting: 1 (16.7) n %
Any dose
  Abnormal physical sensation: 2 (6.7) N (%)
  Abnormal sensation of limbs: 2 (6.7) N (%)
  Anger: 2 (6.7) N (%)
  Application site erythema: 4 (13.3) N (%)
  Application site pruritus: 2 (6.7) N (%)
  At least 1 adverse event: 27 (90.0) N (%)
  Backache: 2 (6.7) N (%)
  Clamminess: 2 (6.7) N (%)
  Daydreaming: 3 (10.0) N (%)
  Disorientation: 2 (6.7) N (%)
  Dizziness: 3 (10.0) N (%)
  Drowsiness: 5 (15.7) N (%)
  Dyspepsia: 2 (6.7) N (%)
  Euphoric mood: 4 (13.3) N (%)
  Eye Disorders: 6 (20.0) N (%)
  Feeling drunk: 2 (6.7) N (%)
  Feeling of relaxation: 7 (23.3) N (%)
  Floating feeling: 3 (10.0) N (%)
  Fuzzy head: 3 (10.0) N (%)
  Gastrointestinal Disorders: 11 (36.7) N (%)
  Hallucination: 2 (6.7) N (%)
  Headache: 14 (46.7) N (%)
  Heaviness of head: 2 (6.7) N (%)
  Hyperactivity: 3 (10.0) N (%)
  Hypoaesthesia mouth: 2 (6.7) N (%)
  Increased state of alertness: 2 (6.7) N (%)
  Intermittent headache: 3 (10.0) N (%)
  Lethargy: 3 (10.0) N (%)
  Lightheadedness: 9 (30.0) N (%)
  Mood altered: 2 (6.7) N (%)
  Mood change: 2 (6.7) N (%)
  Musculoskeletal and Connective Tissue Disorders: 8 (26.7) N (%)
  Nausea: 5 (16.7) N (%)
  Nervous System Disorders: 20 (66.7) N (%)
  Paraesthesia generalized: 2 (6.7) N (%)
  Paranoia: 2 (6.7) N (%)
  Psychiatric Disorders: 15 (50.0) N (%)
  Respiratory, Thoracic and Mediastinal Disorders: 5 (16.7) N (%)
  Sedation: 2 (6.7) N (%)
  Sensation of heaviness: 2 (6.7) N (%)
  Sensation of pressure: 2 (6.7) N (%)
  Skin and Subcutaneous Tissue Disorders: 6 (20.0) N (%)
  Sleep difficult: 2 (6.7) N (%)
  Sleep disturbance: 2 (6.7) N (%)
  Somnolence: 3 (10.0) N (%)
  Sore throat: 3 (10.0) N (%)
  Spaced out: 3 (10.0) N (%)
  Syncope: 2 (6.7) N (%)
  Taste change: 2 (6.7) N (%)
  Temporal disorientation: 2 (6.7) N (%)
  Tingling: 2 (6.7) N (%)
  Tiredness: 13 (43.3) N (%)
  Visual disturbance: 4 (13.3) N (%)
  Vivid dreams: 4 (13.3) N (%)
  Vomiting: 3 (10.0) N (%)
male, human, in vivo, 7 days
  Nasal obstruction: 2 (6.7) N (%)
